Experimental findings from patent EP0294940B1, “Pharmaceutical compositions” (FISONS plc, priority 1987, dated 1988) are described below.

For the assay, the system named is adenosine monophosphate induced bronchoconstriction. The assay can be described thus: Attenuation of adenosine monophosphate (AMP) induced bronchoconstriction (Example E). The following applies: AMP dose giving a 40% reduction in pEFR, pretreatment inhaled for five minutes from a Wright Nebuliser. Format: in vivo, Atopic healthy volunteers. The protocol: Effect of active ingredients A and B, separately and in combination in attenuating adenosine monophosphate induced bronchoconstriction
Atopic healthy volunteers were selected for the study. Prior to the administration of pretreatment, baseline values of forced expiratory volume in one second (FEV₁), partial expiratory flow rate (pEFR) and maximum expiratory flow rate (mEFR) were measured. Measurement was made on at least three occasions or until the readings were stable (less than 5% variation). On each occasion the pretreatment was inhaled for five minutes from a Wright Nebuliser (operating at a flow rate of 7 litres per minute) through the mouth during tidal breathing.
Prior to the commencement of adenosine monophosphate (AMP) challenge FEV₁, pEFR and mEFR were measured. The AMP challenge was performed on each study day by giving doubling doses of AMP, each inhaled for two minutes, from either a Wright Nebuliser (operating at a flow rate of 6.5 litres per minute) or an Acorn Nebuliser (operating at a flow rate of 5.5 litres per minute) until a reduction in pEFR of greater than 40% occurs. The nebuliser chosen for each subject was the same throughout the study. AMP was given in a 1 mg/ml-256 mg/ml concentration range, the diluent being physiological saline. Successive doses were administered at 5 minute intervals. Partial expiratory flow rates were measured at 0.5 and 2.5 minutes after each AMP dose. The dose giving a 40% (PD₄₀) reduction in pEFR was determined by interpolation from a log dose response curve.
The results given in Table 1 were obtained using the procedure of Example E in four volunteers. Ingredient A was nedocromil sodium administered as a 0.5% w/v aqueous solution; ingredient B was atropine methonitrate administered as a 0.2% w/v aqueous solution. The combination was an aqueous solution containing 0.5% w/v nedocromil sodium and 0.2% w/v atropine methonitrate.

Structures are written as SMILES.

With `C[N+]1(C)[C@@H]2CC[C@H]1C[C@@H](OC(=O)C(CO)c1ccccc1)C2` (some centres unmarked) [Ingredient B, atropine methonitrate], the PD40 was found to be 42 mg/mL (Volunteer 1), 23 mg/mL (Volunteer 2), 12 mg/mL (Volunteer 3) and 3.4 mg/mL (Volunteer 4).
In the same order, the values of `CCCc1c2oc(C(=O)O)cc(=O)c2cc2c(=O)cc(C(=O)O)n(CC)c12` [Ingredient A, nedocromil sodium] are 43 mg/mL, 32 mg/mL, 17 mg/mL and 27 mg/mL.
